ChEMBL document CHEMBL1201862, “PubChem BioAssay data set” (2004)
The source made the active and inactive calls.

How the values were obtained:
Cytochrome P450 2C9 = Cytochrome P450 2C9 (Homo sapiens, UniProt P11712)
Cytochrome P450 1A2 = target: T1, Cytochrome P450 1A2 (Homo sapiens, UniProt P05177);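 note: PubChem cytochrome P450 panel assay, CYP1A2 panel member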
T1 sequence (P05177 whole entry): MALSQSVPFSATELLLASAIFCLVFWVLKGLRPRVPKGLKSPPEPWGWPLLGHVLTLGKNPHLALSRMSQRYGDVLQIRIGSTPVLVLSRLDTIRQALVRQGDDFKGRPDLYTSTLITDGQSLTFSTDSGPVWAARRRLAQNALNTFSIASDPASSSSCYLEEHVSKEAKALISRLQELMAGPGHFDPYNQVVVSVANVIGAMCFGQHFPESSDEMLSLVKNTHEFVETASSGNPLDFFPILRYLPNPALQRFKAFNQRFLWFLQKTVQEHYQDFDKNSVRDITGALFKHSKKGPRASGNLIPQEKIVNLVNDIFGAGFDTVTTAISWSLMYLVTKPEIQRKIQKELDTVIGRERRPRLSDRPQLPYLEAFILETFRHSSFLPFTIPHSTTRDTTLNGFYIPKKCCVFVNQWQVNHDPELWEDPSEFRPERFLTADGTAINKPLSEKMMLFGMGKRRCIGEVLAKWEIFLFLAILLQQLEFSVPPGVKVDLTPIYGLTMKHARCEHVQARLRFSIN

[1] = target: Lysine-specific demethylase 4C (Homo sapiens, UniProt Q9H3R0); assay: inhibition of JMJD2C H3K9me3 demethylation – biochemical, DELFIA europium, cherry-picked samples, dose response (AID 488835); type: functional
Phospholipase D2 = Phospholipase D2 (Homo sapiens, UniProt O14939); assay: cellular phospholipase D2 inhibition IC50 – cell-based, dose response (AID 602147); type: functional;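 note: cellular assay in HEK293 cells overexpressing GFP-tagged PLD2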
[2] = target: T2, Alkaline phosphatase, tissue-nonspecific isozyme (Homo sapiens, UniProt P05186); assay: TNAP enzyme inhibition by screening hits, dose response, selectivity assay for mouse IAP inhibitor project, biochemical, human TNAP, uHTS hits (AID 488906); type: functional
T2 sequence (P05186 whole entry): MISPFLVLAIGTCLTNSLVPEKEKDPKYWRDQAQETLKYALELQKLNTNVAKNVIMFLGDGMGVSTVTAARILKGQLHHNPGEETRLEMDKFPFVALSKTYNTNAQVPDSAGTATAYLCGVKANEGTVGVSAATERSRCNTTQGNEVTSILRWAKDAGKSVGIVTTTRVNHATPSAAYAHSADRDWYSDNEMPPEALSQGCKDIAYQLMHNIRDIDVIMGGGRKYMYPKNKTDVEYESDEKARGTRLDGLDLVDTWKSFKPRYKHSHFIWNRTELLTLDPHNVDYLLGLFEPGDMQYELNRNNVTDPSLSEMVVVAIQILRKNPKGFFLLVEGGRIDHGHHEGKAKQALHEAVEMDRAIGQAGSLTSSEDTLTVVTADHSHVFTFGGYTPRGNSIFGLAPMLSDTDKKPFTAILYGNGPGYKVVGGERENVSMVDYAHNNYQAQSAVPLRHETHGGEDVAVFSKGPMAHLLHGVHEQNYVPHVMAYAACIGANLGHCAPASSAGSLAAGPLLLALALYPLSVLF

[3] = target: T3, Intestinal-type alkaline phosphatase (Homo sapiens, UniProt P09923); assay: inhibition of human intestinal alkaline phosphatase – biochemical, dose response (AID 488876); type: functional
[4] = target: T4, Intestinal-type alkaline phosphatase (Mus musculus, UniProt P24822); assay: PubChem AID 488785; type: functional
SUMO E1/E2 = SUMO E1/E2 (Homo sapiens, UniProt P63279+Q9UBE0+Q9UBT2); assay: SAR analysis of SUMOylation using HTRF in an in-Vitro dose response assay. [Related pubchem assays (depositor defined):AID2006, AID2011, AID2018, AID2069, AID2658]; type: functional
[5] = target: T3, Intestinal-type alkaline phosphatase; assay: activation of human intestinal alkaline phosphatase – biochemical, luminescent, uHTS hits, set 2, dose response (AID 488817); type: functional;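 note: potency of activators that raise enzyme activity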
[6] = target: T4, Intestinal-type alkaline phosphatase; assay: PubChem AID 488875; type: functional
Streptokinase A = target: T5, Streptokinase A (Streptococcus pyogenes serotype M1, UniProt P10520); assay: viability-normalized secreted streptokinase activity reduction – plasminogen activation absorbance, OD405, dose response (AID 1914); type: functional, Streptococcus pyogenes M1 GAS;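 note: secreted streptokinase activity via plasminogen activation per viability signal from cell pellet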
T5 sequence (P10520 whole entry): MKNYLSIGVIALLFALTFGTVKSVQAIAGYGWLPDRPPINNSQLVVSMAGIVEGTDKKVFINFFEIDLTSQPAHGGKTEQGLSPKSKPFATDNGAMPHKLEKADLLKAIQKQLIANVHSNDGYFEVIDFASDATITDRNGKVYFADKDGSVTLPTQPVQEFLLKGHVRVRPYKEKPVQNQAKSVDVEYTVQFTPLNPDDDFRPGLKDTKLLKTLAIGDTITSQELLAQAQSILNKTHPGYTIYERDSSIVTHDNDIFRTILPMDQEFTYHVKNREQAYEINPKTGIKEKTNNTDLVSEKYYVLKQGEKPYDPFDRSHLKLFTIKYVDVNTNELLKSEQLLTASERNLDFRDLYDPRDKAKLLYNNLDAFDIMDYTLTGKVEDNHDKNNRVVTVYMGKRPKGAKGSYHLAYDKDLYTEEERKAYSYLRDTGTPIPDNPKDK

[7] = target: T2, Alkaline phosphatase, tissue-nonspecific isozyme; assay: activation of tissue-nonspecific alkaline phosphatase – biochemical, TNAP isozyme, human IAP uHTS hits, selectivity assay for human IAP activator project, dose response (AID 488886); type: functional;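 note: potency of compounds raising TNAP activity as a selectivity check on IAP activators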
[8] = target: T3, Intestinal-type alkaline phosphatase; assay: human intestinal alkaline phosphatase activators, dose response, biochemical, luminescence, uHTS hits (AID 463120); type: functional

T3 sequence (P09923 whole entry): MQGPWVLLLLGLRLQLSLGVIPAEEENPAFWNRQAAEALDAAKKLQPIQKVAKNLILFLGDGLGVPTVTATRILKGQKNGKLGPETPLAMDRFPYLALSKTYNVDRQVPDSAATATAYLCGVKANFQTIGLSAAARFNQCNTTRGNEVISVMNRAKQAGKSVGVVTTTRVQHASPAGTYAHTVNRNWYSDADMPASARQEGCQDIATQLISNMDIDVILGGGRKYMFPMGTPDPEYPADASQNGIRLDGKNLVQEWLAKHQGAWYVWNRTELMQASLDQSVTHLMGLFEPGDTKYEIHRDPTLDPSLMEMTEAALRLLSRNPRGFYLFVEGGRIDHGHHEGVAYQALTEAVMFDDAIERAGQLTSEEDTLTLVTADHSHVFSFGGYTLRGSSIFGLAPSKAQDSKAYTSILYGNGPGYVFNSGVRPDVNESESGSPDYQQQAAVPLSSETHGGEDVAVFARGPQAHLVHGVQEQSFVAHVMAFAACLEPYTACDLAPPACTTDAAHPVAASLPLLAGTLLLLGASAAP
T4 sequence (P24822 whole entry): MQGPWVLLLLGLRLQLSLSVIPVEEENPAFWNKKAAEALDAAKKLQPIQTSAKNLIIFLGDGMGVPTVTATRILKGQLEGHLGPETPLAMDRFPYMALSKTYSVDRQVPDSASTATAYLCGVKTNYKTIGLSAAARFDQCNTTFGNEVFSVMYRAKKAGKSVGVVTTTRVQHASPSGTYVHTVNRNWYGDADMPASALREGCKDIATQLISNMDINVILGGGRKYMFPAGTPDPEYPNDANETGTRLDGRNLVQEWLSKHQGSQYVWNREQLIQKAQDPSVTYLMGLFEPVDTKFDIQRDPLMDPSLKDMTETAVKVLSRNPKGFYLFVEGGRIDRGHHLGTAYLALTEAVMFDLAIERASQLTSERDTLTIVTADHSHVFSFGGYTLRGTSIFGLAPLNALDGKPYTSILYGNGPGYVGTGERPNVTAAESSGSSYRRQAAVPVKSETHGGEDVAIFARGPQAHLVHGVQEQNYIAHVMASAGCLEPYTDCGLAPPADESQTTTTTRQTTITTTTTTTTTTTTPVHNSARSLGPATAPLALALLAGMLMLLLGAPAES
Phospholipase D2, sequence (O14939 whole entry): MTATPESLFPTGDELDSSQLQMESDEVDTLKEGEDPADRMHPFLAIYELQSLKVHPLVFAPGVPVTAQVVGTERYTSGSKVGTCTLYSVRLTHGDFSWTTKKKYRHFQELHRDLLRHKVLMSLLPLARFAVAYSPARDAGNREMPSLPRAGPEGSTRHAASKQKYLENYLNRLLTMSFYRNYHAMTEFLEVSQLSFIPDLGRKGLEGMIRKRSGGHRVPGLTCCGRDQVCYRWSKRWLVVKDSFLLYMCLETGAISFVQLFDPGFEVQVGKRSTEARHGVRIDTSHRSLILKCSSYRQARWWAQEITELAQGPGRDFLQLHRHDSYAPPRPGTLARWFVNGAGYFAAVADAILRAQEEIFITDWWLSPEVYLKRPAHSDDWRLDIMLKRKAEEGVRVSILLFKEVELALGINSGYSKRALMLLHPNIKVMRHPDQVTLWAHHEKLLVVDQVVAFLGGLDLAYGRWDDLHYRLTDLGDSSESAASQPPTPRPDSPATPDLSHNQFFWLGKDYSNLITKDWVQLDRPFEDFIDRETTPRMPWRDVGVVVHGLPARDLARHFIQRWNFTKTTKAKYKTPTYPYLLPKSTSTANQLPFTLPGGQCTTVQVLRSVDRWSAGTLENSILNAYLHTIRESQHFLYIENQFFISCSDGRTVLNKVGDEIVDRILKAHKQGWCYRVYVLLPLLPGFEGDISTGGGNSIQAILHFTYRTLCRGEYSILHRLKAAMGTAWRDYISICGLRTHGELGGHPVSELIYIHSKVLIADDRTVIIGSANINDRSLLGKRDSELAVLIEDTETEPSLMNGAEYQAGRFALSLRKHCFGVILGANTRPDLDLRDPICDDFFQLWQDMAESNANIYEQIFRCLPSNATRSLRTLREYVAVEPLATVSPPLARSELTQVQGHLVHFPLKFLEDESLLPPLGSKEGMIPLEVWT
Lysine-specific demethylase 4C, sequence (Q9H3R0 whole entry): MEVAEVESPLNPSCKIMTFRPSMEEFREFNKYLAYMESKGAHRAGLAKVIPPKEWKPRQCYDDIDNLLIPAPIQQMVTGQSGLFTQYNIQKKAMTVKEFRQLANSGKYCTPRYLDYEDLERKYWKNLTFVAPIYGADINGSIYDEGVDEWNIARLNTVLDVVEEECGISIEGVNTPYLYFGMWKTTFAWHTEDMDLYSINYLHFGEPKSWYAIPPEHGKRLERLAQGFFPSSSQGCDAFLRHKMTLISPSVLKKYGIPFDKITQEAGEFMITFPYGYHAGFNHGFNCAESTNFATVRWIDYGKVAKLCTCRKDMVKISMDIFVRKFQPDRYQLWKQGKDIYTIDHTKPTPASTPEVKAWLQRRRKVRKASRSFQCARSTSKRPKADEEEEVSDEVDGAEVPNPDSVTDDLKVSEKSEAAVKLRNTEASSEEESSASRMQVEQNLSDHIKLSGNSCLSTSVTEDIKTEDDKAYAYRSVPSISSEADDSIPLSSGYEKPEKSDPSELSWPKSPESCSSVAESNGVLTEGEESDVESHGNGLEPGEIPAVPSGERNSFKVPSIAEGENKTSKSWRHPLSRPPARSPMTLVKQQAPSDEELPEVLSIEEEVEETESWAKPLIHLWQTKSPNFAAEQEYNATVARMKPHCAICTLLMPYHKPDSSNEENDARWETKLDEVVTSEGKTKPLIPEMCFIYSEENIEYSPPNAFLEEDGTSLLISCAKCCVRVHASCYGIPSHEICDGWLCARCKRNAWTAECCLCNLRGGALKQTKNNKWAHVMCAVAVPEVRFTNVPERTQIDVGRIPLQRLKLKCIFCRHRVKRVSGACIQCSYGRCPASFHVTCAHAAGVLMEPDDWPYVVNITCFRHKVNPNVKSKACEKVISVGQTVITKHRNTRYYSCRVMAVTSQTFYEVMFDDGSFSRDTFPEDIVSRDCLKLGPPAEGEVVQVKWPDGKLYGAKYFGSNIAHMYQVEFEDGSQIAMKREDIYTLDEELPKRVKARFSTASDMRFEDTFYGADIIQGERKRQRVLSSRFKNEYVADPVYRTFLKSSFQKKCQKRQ
SUMO E1/E2, sequence (Q9UBE0 whole entry): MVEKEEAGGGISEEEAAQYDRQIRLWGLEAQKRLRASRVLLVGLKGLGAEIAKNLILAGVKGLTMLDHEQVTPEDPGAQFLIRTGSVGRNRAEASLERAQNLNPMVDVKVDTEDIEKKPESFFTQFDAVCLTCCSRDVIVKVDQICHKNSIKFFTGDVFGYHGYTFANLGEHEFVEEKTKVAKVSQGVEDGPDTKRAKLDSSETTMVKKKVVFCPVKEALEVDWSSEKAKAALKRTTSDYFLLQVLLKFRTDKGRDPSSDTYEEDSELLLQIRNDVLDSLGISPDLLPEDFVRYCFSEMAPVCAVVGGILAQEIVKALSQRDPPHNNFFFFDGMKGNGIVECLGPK
SUMO E1/E2, sequence (Q9UBT2 whole entry): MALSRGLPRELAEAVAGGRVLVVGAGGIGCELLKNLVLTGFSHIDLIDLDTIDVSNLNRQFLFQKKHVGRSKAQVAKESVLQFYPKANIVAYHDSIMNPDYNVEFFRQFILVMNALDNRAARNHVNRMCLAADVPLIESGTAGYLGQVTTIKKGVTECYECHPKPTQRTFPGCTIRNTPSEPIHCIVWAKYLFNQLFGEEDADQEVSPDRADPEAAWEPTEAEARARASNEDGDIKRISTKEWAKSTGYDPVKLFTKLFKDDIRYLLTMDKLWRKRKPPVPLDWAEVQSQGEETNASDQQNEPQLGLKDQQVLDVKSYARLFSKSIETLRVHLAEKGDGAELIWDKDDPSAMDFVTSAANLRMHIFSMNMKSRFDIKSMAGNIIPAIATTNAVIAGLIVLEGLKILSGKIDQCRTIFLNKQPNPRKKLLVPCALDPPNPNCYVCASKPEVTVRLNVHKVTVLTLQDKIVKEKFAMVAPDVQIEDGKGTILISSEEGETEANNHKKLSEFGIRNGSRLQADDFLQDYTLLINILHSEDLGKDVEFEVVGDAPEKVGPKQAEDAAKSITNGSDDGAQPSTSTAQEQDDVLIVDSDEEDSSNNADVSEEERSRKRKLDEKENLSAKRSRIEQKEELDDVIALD
SUMO E1/E2, sequence (P63279 whole entry): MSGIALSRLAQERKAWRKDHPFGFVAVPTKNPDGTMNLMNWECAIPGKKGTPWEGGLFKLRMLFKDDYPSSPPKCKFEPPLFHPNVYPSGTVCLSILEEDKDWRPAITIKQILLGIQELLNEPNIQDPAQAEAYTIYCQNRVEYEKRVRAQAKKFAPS
Cytochrome P450 2C9, sequence (P11712 whole entry): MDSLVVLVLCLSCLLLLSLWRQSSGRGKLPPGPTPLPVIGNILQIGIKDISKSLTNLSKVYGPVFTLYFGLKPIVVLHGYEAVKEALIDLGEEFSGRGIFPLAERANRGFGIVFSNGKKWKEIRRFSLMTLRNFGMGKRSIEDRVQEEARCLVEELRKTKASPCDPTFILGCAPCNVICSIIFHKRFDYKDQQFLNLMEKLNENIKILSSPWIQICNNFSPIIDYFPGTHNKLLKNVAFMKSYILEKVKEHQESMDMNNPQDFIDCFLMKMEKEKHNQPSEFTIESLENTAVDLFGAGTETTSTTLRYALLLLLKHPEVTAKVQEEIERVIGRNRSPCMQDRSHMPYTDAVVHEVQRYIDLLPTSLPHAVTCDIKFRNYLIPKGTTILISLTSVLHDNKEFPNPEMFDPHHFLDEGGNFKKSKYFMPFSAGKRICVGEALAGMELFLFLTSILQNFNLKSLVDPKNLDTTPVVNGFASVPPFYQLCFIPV

For `COc1cc(OC)c(C(=O)CCCN2CCCC2)c(OC)c1` [BUFLOMEDIL], the AC50 (Cytochrome P450 2C9) was “inactive” and the AC50 (Cytochrome P450 1A2) was “inactive”.

`COc1ccccc1N1CCN(C(=O)CSc2nc(C)cc(O)n2)CC1` was tested, and the AC50 [1] was 10.1 µM (active).

`O=C(NCCN1CCC2(CC1)C(=O)NCN2c1ccc(F)c(F)c1)c1cc2cc(F)ccc2[nH]1` was tested, and the IC50 (Phospholipase D2) was 0.097 µM (active).

In the case of `CCn1nc(C)c(CN2CCC(C(=O)Nc3cccc(-c4cccc(Cl)c4)c3)CC2)c1C`, the IC50 [2] is reported as 41 µM (active), the IC50 [3] is reported as 4.61 µM (active) and the IC50 [4] is reported as 1.87 µM (active).

`C/C(=N\OCc1nc2ccccc2c(=O)n1/N=C/c1ccccc1O)c1ccccc1` was tested, and the IC50 (SUMO E1/E2) was 29.2 µM (active).

`CCC(NC(=S)NC1CCCCC1)c1ccc(C(C)C)cc1` (stereo not drawn) was tested, and the EC50 [5] was 52.4 µM (active), the EC50 [6] was 60.1 µM (active) and the EC50 (Streptokinase A) was 43.4 µM (active). The EC50 [7] was 54.3 µM (active) and the EC50 [8] was 81.2 µM (active).
